Experimental data as given in US6350764B2, “Heteroaryl aminoguanidines and alkoxyguanidines and their use as protease inhibitors” (3-Dimensional Pharmaceuticals, Inc., priority 1997, dated 2002).
Where a name gives a salt, the structure may show the parent alone.

Tests used:
Format in all cases: biochemical
[1] = target: T1, bovine α-chymotrypsin (Bos taurus, UniProt P00766); assay: In vitro inhibition of purified enzymes: chymotrypsin, hydrolysis of N-succinyl-Ala-Ala-Pro-Phe-p-nitroanilide; conditions: at 24,600 nM; read-out: % Inhibition Chymo.
T1 construct: Bovine α-chymotrypsin (Sigma C4129); purchased Sigma C4129
Source text: (§1) Reagents: All buffer salts were obtained from Sigma Chemical Company (St. Louis, Mo.), and were of the highest purity available. The enzyme substrates, N-benzoyl-Phe-Val-Arg-p-nitroaniide (Sigma B7632) N-benzoyl-Ile-Glu-Gly-Arg-p-nitroanilide hydrochloride (Sigma B2291), N-p-Tosyl-Gly-Pro-Lys-p-nitroanilide (Sigma T6140), N-succinyl-Ala-Ala-Pro-Phe-p-nitroanilide (Sigma S7388) and N-CBZ-Val-Gly-Arg-p-nitroanilide (Sigma C7271) were obtained from Sigma. N-succinyl-Ala-Ala-Pro-Arg-p-nitroanilide (BACHEM L-1720) and N-succinyl-Ala-Ala-Pro-Val-p-nitroanilide (BACHEM L-1770) were obtained from BACHEM (King of Prussia, Pa.).
(§2) Human α-thrombin, human factor Xa and human plasmin were obtained from Enzyme Research Laboratories (South Bend, Id.). Bovine α-chymotrypsin (Sigma C4129), bovine trypsin (Sigma T8642) and human kidney cell urokinase (Sigma U5004) were obtained from Sigma. Human leukocyte elastase was obtained from Elastin Products (Pacific, Mo.).
(§3) Ki Determinations: All assays are based on the ability of the test compound to inhibit the enzyme catalyzed hydrolysis of a peptide p-nitroanilide substrate. In atypical Ki determination, substrate is prepared in DMSO, and diluted into an assay buffer consisting of 50 mM HEPES, 200 mM NaCl, pH 7.5. The final concentrations for each of the substrates is listed below. In general, substrate concentrations are lower than the experimentally determined value for Km. Test compounds are prepared as a 1.0 mg/ml solution in DMSO. Dilutions are prepared in DMSO yielding 8 final concentrations encompassing a 200 fold concentration range. Enzyme solutions are prepared at the concentrations listed below in assay buffer.
(§4) In a typical Ki determination, into each well of a 96 well plate is pipetted 280 mL of substrate solution, 10 mL of test compound solution, and the plate allowed to thermally equilibrate at 37° C. in a Molecular Devices plate reader for>15 minutes. Reactions were initiated by the addition of a […] aliquot of enzyme and the absorbance increase at 405 nm is recorded for 15 minutes. Data corresponding to less than 10% of the total substrate hydrolysis were used in the calculations. The ratio of the velocity (rate of change in absorbance as a function of time) for a sample containing no test compound is divided by the velocity of a sample containing test compound, and is plotted as a function of test compound concentration. The data are fit to a linear regression, and the value of the slope of the line calculated. The inverse of the slope is the experimentally determined Ki value.
Chymotrypsin: Chymotrypsin activity was assessed as the ability to hydrolyze N-succinyl-Ala-Ala-Pro-Phe-p-nitroanilide. […] Final DMSO concentration was 4.3%. Purified bovine chymotrypsin was diluted into assay buffer to a concentration of 81 nM. Final reagent concentrations were: [Chymotrypsin]=2.7 nM, [N-succinyl-Ala-Ala-Pro-Phe-p-nitroanilide]=14 mM.

[2] = target: T2, human leukocyte elastase (Homo sapiens, UniProt P08246); assay: In vitro inhibition of purified enzymes: elastase, hydrolysis of N-succinyl-Ala-Ala-Pro-Val-p-nitroanilide
T2 construct: purchased Elastin Products (Pacific, Mo.)
T2 sequence (P08246 30-247 limits assumed): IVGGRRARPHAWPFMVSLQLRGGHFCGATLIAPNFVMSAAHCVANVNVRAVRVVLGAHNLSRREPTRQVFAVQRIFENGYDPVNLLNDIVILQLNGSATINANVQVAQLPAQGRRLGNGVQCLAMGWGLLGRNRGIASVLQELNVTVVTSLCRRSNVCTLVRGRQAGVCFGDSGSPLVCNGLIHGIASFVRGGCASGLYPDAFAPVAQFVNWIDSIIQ
Source text: as §1, §2, §3, §4
Elastase: Elastase activity was assessed as the ability to hydrolyze N-succinyl-Ala-Ala-Pro-Val-p-nitroanilide. Substrate solutions were prepared at a concentration of 19 mM (19 mM<<Km=89 mM) in assay buffer. Final DMSO concentration was 4.3%. Purified human leukocyte elastase was diluted into assay buffer to a concentration of 750 nM. Final reagent concentrations were: [Elastase]=25 nM, [N-succinyl-Ala-Ala-Pro-Val-p-nitroanilide]=19 mM.

[3] = target: T3, human plasmin (Homo sapiens, UniProt P00747); assay: In vitro inhibition of purified enzymes: plasmin, hydrolysis of N-p-Tosyl-Gly-Pro-Lys-p-nitroanilide; conditions: at 24,600 nM
T3 construct: Purified human plasmin was diluted into assay buffer; purchased Enzyme Research Laboratories (South Bend)
Source text: as §1, §2, §3, §4
Plasmin: Plasmin activity was assessed as the ability to hydrolyze the N-p-Tosyl-Gly-Pro-Lys-p-nitroanilide. Substrate solutions were prepared at a concentration of 37 mM (37 mM<<Km=243 mM) in assay buffer. Final DMSO concentration was 4.3%. Purified human plasmin was diluted into assay buffer to a concentration of 240 nM. Final reagent concentrations were: [Plasmin]=8 nM, [N-p-Tosyl-Gly-Pro-Lys-p-nitroanilide]=37 mM.

[4] = target: T4, bovine trypsin (Bos taurus, UniProt P00760); assay: In vitro inhibition of purified enzymes: trypsin, hydrolysis of N-benzoyl-Phe-Val-Arg-p-nitroanilide; conditions: for Ki: 37° C., pH 7.5
T4 construct: Purified bovine trypsin was diluted into assay buffer; purchased Sigma T8642
T4 sequence (P00760 24-246): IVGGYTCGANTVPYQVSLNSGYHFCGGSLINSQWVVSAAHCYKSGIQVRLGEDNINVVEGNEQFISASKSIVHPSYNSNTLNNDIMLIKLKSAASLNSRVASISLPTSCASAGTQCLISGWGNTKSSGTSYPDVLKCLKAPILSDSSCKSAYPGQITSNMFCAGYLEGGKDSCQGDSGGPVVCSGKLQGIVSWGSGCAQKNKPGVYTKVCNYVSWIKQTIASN
Source text: as §1, §2, §3, §4
Trypsin: Trypsin activity was assessed as the ability to hydrolyze N-benzoyl-Phe-Val-Arg-p-nitroanilide. […] Final DMSO concentration was 4.3%. Purified bovine trypsin was diluted into assay buffer to a concentration of 120 nM. Final reagent concentrations were: [Trypsin]=4 nM, [N-benzoyl-Phe-Val-Arg-p-nitroanilide]=13 mM.

[5] = target: T5, human α-thrombin (Homo sapiens, UniProt P00734); assay: In vitro inhibition of purified enzymes: thrombin, hydrolysis of N-succinyl-Ala-Ala-Pro-Arg-p-nitroanilide; conditions: 37° C., pH 7.5
T5 construct: Purified human a-thrombin was diluted into assay buffer; purchased Enzyme Research Laboratories (South Bend)
Source text: as §1, with “Sigma.” for “Sigma. N-succinyl-Ala-Ala-Pro-Arg-p-nitroanilide (BACHEM L-1720) and N-succinyl-Ala-Ala-Pro-Val-p-nitroanilide (BACHEM L-1770) were obtained from BACHEM (King of Prussia, Pa.).”
as §2
as §3, with “In atypical Ki determination, substrate is prepared in DMSO, and diluted into an assay buffer consisting of 50 mM HEPES, 200 mM NaCl, pH 7.5.” left out
as §4, with “Reactions” for “In a typical Ki determination, into each well of a 96 well plate is pipetted 280 mL of substrate solution, 10 mL of test compound solution, and the plate allowed to thermally equilibrate at 37° C. in a Molecular Devices plate reader for>15 minutes. Reactions”
Thrombin: Thrombin activity was assessed as the ability to hydrolyze the substrate N-succinyl-Ala-Ala-Pro-Arg-p-nitroanilide. […] Final reagent concentrations were: [thrombin]=0.5 nM, [substrate N-succinyl-Ala-Ala-Pro-Arg-p-nitroanilide]=32 mM.

[6] = target: T6, human factor Xa (Homo sapiens, UniProt P00742); assay: In vitro inhibition of purified enzymes: Factor X [FXa], hydrolysis of N-benzoyl-Ile-Glu-Gly-Arg-p-nitroanilide; conditions: 37° C., pH 7.5
T6 construct: purchased Enzyme Research Laboratories (South Bend)
Source text: as §1, §2, §3, §4
Factor X [FXa]: FXa activity was assessed as the ability to hydrolyze the substrate N-benzoyl-Ile-Glu-Gly-Arg-p-nitroanilide hydrochloride. […] Final DMSO concentration was 4.3%. Purified activated human Factor X was diluted into assay buffer to a concentration of 300 nM. Final reagent concentrations were: [FXa]=10 nM, [N-benzoyl-Ile-Glu-Gly-Arg-p-nitroanilide hydrochloride]=51 mM.

T6 sequence (P00742 235-488 limits assumed): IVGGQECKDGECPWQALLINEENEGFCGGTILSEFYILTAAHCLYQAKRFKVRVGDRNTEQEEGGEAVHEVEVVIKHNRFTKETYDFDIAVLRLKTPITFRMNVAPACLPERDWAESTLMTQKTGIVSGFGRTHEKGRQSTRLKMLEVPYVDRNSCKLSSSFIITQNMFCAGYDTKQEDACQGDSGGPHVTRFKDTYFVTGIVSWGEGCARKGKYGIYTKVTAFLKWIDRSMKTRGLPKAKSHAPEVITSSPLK
T6 sequence (P00742 41-179 partner limits assumed): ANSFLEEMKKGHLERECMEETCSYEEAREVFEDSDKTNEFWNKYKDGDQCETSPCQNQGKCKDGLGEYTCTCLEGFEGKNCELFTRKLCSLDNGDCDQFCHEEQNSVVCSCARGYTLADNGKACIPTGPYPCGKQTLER
T3 sequence (P00747 581-810 limits assumed): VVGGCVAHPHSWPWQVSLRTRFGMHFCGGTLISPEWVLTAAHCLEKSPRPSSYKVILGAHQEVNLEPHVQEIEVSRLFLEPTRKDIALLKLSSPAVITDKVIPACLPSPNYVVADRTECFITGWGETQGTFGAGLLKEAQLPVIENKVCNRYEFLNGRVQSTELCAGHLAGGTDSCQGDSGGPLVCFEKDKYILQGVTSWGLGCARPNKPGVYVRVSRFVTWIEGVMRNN
T3 sequence (P00747 97-580 partner limits assumed): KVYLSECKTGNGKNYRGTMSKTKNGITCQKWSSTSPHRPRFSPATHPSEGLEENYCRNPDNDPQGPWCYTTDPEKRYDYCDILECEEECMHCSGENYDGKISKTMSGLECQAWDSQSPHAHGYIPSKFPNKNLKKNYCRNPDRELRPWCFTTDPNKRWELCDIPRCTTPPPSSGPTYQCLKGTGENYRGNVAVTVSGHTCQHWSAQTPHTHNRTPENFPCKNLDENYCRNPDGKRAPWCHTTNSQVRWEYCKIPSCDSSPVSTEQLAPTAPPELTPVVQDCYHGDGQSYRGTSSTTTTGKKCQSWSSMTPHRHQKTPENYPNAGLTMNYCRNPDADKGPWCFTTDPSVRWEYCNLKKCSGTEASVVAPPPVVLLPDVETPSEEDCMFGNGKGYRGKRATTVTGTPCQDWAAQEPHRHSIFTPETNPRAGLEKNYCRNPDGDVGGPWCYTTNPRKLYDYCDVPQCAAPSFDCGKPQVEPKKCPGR

Ki [5] [nM] | Ki [6] [nM] | Ki [4] [nM] | SMILES | other results
– | – | – | Cc1cccc(S(=O)(=O)Nc2ccc(C)n(CC(=O)NCCONC(=N)N)c2=O)c1 [Example 5, 3-(3-Methylphenylsulfonyl)amino-6-methyl-1-[(2-guanidinooxyethyl)aminocarbonylmethyl]-2-pyridinone trifluoroacetate] | inhibition at 24.6 µM [1]: 0%; inhibition at 24.6 µM ([2]; at 24,600 nM): 0%; inhibition at 24.6 µM [3]: 0%; inhibition at 24.6 µM ([4]; at 24,600 nM): 0%
2 | 2200 | 4000 | Cc1ccc(NS(=O)(=O)Cc2ccc(Cl)cc2)c(=O)n1CC(=O)NCCONC(=N)N [Example 16, 3-(4-Chlorobenzylsulfonyl)amino-6-methyl-1-[(2-guanidinooxyethyl)aminocarbonylmethyl]-2-pyridinone trifluoroacetate] | inhibition at 19 µM ([2]; at 19,000 nM): 0%
29 | 7900 | – | N=C(N)NOCCNC(=O)Cn1cccc(NS(=O)(=O)Cc2ccccc2)c1=O [Example 4, 3-Benzylsulfonylamino-1-[(2-guanidinooxyethyl)aminocarbonylmethyl]-2-pyridinone trifluoroacetate] | inhibition at 79 µM ([2]; at 79,000 nM): 0%
43 | – | – | Cc1ccc(NS(=O)(=O)Cc2ccccc2)c(=O)n1CC(=O)N1CCC(ONC(=N)N)CC1 [Example 8, 3-(Benzylsulfonyl)amino-6-methyl-1-[(4-guanidinooxy)piperidinylcarbonylmethyl]-2-pyridinone trifluoroacetate] | inhibition at 56 µM ([2]; at 56,000 nM): 0%; inhibition at 56 µM ([4]; at 56,000 nM): 0%
2 | 2200 | 7600 | Cc1ccc(NS(=O)(=O)Cc2ccc(Cl)c(Cl)c2)c(=O)n1CC(=O)NCCONC(=N)N [Example 24, 3-(3,4-Dichlorobenzylsulfonyl)amino-6-methyl-1-[(2-guanidinooxyethyl)aminocarbonylmethyl]-2-pyridinone trifluoroacetate] | inhibition at 18 µM ([2]; at 18,000 nM): 0%
